From PubChem BioAssay AID270 (DTP/NCI, 2004)
Where “and” joins values, the source holds several entries; their conditions need not be identical. Identical values can stand only once. Records with an inconclusive call do not appear.

System: BDF1 mice, s.c. Lewis lung carcinoma, T/C %
Test: NCI In Vivo Anticancer Drug Screen. Data for tumor model Lewis Lung Carcinoma (subcutaneous) in B6D2F1 (BDF1) mice
Procedure, shortened: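 Readout: survival or tumor size, expressed as treated (T) over vehicle control (C). Transplantable tumor implanted in mice; compound given to the treated group.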

SMILES: O=P1(N(CCCl)CCCl)NCCCO1 (centres undefined)
- T/C (endpoint: mean survival time, dose: 100.0 mg/kg/injection, schedule: Q08DX002 (ip), vehicle: saline, higher = longer survival): 188 % of control
- T/C (endpoint: mean survival time, dose: 300.0 mg/kg/injection, schedule: Q08DX002 (ip), vehicle: saline, higher = longer survival): 117 % of control
- T/C (endpoint: mean tumor weight (est.), dose: 65.0 mg/kg/injection, schedule: Q01DX009 (ip), vehicle: saline, higher = larger tumour): 3 % of control
- T/C (endpoint: mean tumor weight (est.), dose: 108.0 mg/kg/injection, schedule: Q01DX001 (ip), vehicle: saline, higher = larger tumour): 19 % of control and 37 % of control
- T/C (endpoint: mean tumor weight (est.), dose: 300.0 mg/kg/injection, schedule: Q01DX001 (ip), vehicle: saline, higher = larger tumour): 15 % of control
- T/C (endpoint: mean tumor weight, dose: 6.25 mg/kg/injection, schedule: Q01DX011 (ip), vehicle: saline, higher = larger tumour): 70 % of control
- T/C (endpoint: mean tumor weight, dose: 12.0 mg/kg/injection, schedule: Q01DX011 (ip), vehicle: saline, higher = larger tumour): 55 % of control
- T/C (endpoint: mean tumor weight, dose: 12.5 mg/kg/injection, schedule: Q01DX011 (ip), vehicle: saline, higher = larger tumour): 74 % of control
- T/C (endpoint: mean tumor weight, dose: 17.0 mg/kg/injection, schedule: Q01DX011 (ip), vehicle: saline, higher = larger tumour): 43 % of control
- T/C (endpoint: mean tumor weight, dose: 22.5 mg/kg/injection, schedule: Q01DX011 (ip), vehicle: saline, higher = larger tumour): 19 % of control and 40 % of control
- T/C (endpoint: mean tumor weight, dose: 25.0 mg/kg/injection, schedule: Q01DX011 (ip), vehicle: saline, higher = larger tumour): 3 % of control and 5 % of control and 12 % of control
- T/C (endpoint: mean tumor weight, dose: 45.0 mg/kg/injection, schedule: Q01DX011 (ip), vehicle: saline, higher = larger tumour): 2 % of control and 11 % of control
- T/C (endpoint: median survival time, dose: 5.0 mg/kg/injection, schedule: Q01DX011 (ip), vehicle: saline, higher = longer survival): 107 % of control
- T/C (endpoint: median survival time, dose: 10.0 mg/kg/injection, schedule: Q01DX001 (ip), vehicle: saline, higher = longer survival): 100 % of control
- T/C (endpoint: median survival time, dose: 10.0 mg/kg/injection, schedule: Q01DX005 (ip), vehicle: saline, higher = longer survival): 153 % of control and 160 % of control
- T/C (endpoint: median survival time, dose: 10.0 mg/kg/injection, schedule: Q01DX009 (ip), vehicle: saline, higher = longer survival): 90 % of control
- T/C (endpoint: median survival time, dose: 10.0 mg/kg/injection, schedule: Q01DX011 (ip), vehicle: saline, higher = longer survival): 89 % of control
- T/C (endpoint: median survival time, dose: 20.0 mg/kg/injection, schedule: Q01DX001 (ip), vehicle: saline, higher = longer survival): 113 % of control
- T/C (endpoint: median survival time, dose: 20.0 mg/kg/injection, schedule: Q01DX005 (ip), vehicle: saline, higher = longer survival): 113 % of control
- T/C (endpoint: median survival time, dose: 20.0 mg/kg/injection, schedule: Q01DX009 (ip), vehicle: saline, higher = longer survival): 104 % of control
- T/C (endpoint: median survival time, dose: 20.0 mg/kg/injection, schedule: Q01DX011 (ip), vehicle: saline, higher = longer survival): 89 % of control
- T/C (endpoint: median survival time, dose: 23.0 mg/kg/injection, schedule: Q01DX009 (ip), vehicle: saline, higher = longer survival): 121 % of control and 124 % of control
- T/C (endpoint: median survival time, dose: 25.0 mg/kg/injection, schedule: Q01DX001 (ip), vehicle: saline, higher = longer survival): 98 % of control and 101 % of control
- T/C (endpoint: median survival time, dose: 25.0 mg/kg/injection, schedule: Q01DX004 (ip), vehicle: saline, higher = longer survival): 154 % of control
- T/C (endpoint: median survival time, dose: 26.0 mg/kg/injection, schedule: Q01DX001 (ip), vehicle: saline, higher = longer survival): 94 % of control and 95 % of control
- T/C (endpoint: median survival time, dose: 39.0 mg/kg/injection, schedule: Q01DX009 (ip), vehicle: saline, higher = longer survival): 91 % of control
- T/C (endpoint: median survival time, dose: 40.0 mg/kg/injection, schedule: Q01DX001 (ip), vehicle: saline, higher = longer survival): 88 % of control
- T/C (endpoint: median survival time, dose: 40.0 mg/kg/injection, schedule: Q01DX009 (ip), vehicle: saline, higher = longer survival): 222 % of control
- T/C (endpoint: median survival time, dose: 43.0 mg/kg/injection, schedule: Q01DX001 (ip), vehicle: saline, higher = longer survival): 112 % of control and 117 % of control
- T/C (endpoint: median survival time, dose: 44.0 mg/kg/injection, schedule: Q01DX005 (ip), vehicle: saline, higher = longer survival): 184 % of control and 233 % of control
- T/C (endpoint: median survival time, dose: 44.4 mg/kg/injection, schedule: Q04DX003 (ip), vehicle: saline, higher = longer survival): 105 % of control and 224 % of control
- T/C (endpoint: median survival time, dose: 50.0 mg/kg/injection, schedule: Q01DX001 (ip), vehicle: saline, higher = longer survival): 112 % of control and 117 % of control
- T/C (endpoint: median survival time, dose: 50.0 mg/kg/injection, schedule: Q01DX001 (ip), vehicle: water, higher = longer survival): 118 % of control
- T/C (endpoint: median survival time, dose: 50.0 mg/kg/injection, schedule: Q01DX004 (ip), vehicle: saline, higher = longer survival): 225 % of control
- T/C (endpoint: median survival time, dose: 50.0 mg/kg/injection, schedule: Q01DX005 (ip), vehicle: saline, higher = longer survival): 158 % of control
- T/C (endpoint: median survival time, dose: 50.0 mg/kg/injection, schedule: Q04DX003 (sc), vehicle: saline, higher = longer survival): 208 % of control and 210 % of control
- T/C (endpoint: median survival time, dose: 66.7 mg/kg/injection, schedule: Q04DX003 (ip), vehicle: saline, higher = longer survival): 167 % of control and 233 % of control
- T/C (endpoint: median survival time, dose: 67.0 mg/kg/injection, schedule: Q01DX005 (ip), vehicle: saline, higher = longer survival): 220 % of control
- T/C (endpoint: median survival time, dose: 70.0 mg/kg/injection, schedule: Q01DX001 (ip), vehicle: saline, higher = longer survival): 108 % of control and 112 % of control
- T/C (endpoint: median survival time, dose: 72.0 mg/kg/injection, schedule: Q01DX001 (ip), vehicle: saline, higher = longer survival): 117 % of control
- T/C (endpoint: median survival time, dose: 80.0 mg/kg/injection, schedule: Q01DX009 (ip), vehicle: saline, higher = longer survival): 100 % of control
- T/C (endpoint: median survival time, dose: 100.0 mg/kg/injection, schedule: Q01DX001 (ip), vehicle: water, higher = longer survival): 190 % of control
- T/C (endpoint: median survival time, dose: 100.0 mg/kg/injection, schedule: Q01DX005 (ip), vehicle: saline, higher = longer survival): 207 % of control
- T/C (endpoint: median survival time, dose: 100.0 mg/kg/injection, schedule: Q04DX003 (ip), vehicle: saline, higher = longer survival): 192 % of control and 233 % of control
- T/C (endpoint: median survival time, dose: 100.0 mg/kg/injection, schedule: Q08DX002 (ip), vehicle: saline, higher = longer survival): 208 % of control
- T/C (endpoint: median survival time, dose: 100.0 mg/kg/injection, schedule: Q11DX002 (ip), vehicle: saline, higher = longer survival): 163 % of control
- T/C (endpoint: median survival time, dose: 150.0 mg/kg/injection, schedule: Q04DX003 (ip), vehicle: saline, higher = longer survival): 233 % of control
- T/C (endpoint: median survival time, dose: 150.0 mg/kg/injection, schedule: Q07DX002 (ip), vehicle: saline, higher = longer survival): 233 % of control
- T/C (endpoint: median survival time, dose: 150.0 mg/kg/injection, schedule: Q07DX004 (ip), vehicle: saline, higher = longer survival): 221 % of control
- T/C (endpoint: median survival time, dose: 150.0 mg/kg/injection, schedule: Q11DX002 (ip), vehicle: saline, higher = longer survival): 150 % of control and 165 % of control
- T/C (endpoint: median survival time, dose: 200.0 mg/kg/injection, schedule: Q04DX003 (sc), vehicle: saline, higher = longer survival): 85 % of control
- T/C (endpoint: median survival time, dose: 225.0 mg/kg/injection, schedule: Q01DX001 (ip), vehicle: saline, higher = longer survival): 153 % of control
- T/C (endpoint: median survival time, dose: 225.0 mg/kg/injection, schedule: Q07DX002 (ip), vehicle: saline, higher = longer survival): 173 % of control
- T/C (endpoint: median survival time, dose: 225.0 mg/kg/injection, schedule: Q09DX002 (ip), vehicle: saline, higher = longer survival): 183 % of control
- T/C (endpoint: median survival time, dose: 225.0 mg/kg/injection, schedule: Q11DX002 (ip), vehicle: saline, higher = longer survival): 166 % of control and 189 % of control
- T/C (endpoint: median survival time, dose: 230.0 mg/kg/injection, schedule: Q01DX001 (ip), vehicle: saline, higher = longer survival): 154 % of control
- T/C (endpoint: median survival time, dose: 300.0 mg/kg/injection, schedule: Q07DX002 (ip), vehicle: saline, higher = longer survival): 173 % of control
- T/C (endpoint: median survival time, dose: 300.0 mg/kg/injection, schedule: Q08DX002 (ip), vehicle: saline, higher = longer survival): 100 % of control
- T/C (endpoint: median survival time, dose: 333.0 mg/kg/injection, schedule: Q01DX001 (ip), vehicle: saline, higher = longer survival): 157 % of control and 193 % of control
- T/C (endpoint: median survival time, dose: 500.0 mg/kg/injection, schedule: Q01DX001 (ip), vehicle: saline, higher = longer survival): 72 % of control
- T/C (endpoint: median survival time, dose: 556.0 mg/kg/injection, schedule: Q01DX001 (ip), vehicle: saline, higher = longer survival): 47 % of control
- T/C (endpoint: median tumor weight (est.), dose: 25.0 mg/kg/injection, schedule: Q01DX009 (ip), vehicle: saline, higher = larger tumour): 50 % of control
- T/C (endpoint: median tumor weight (est.), dose: 50.0 mg/kg/injection, schedule: Q01DX009 (ip), vehicle: saline, higher = larger tumour): 11 % of control and 19 % of control
- T/C (endpoint: median tumor weight (est.), dose: 75.0 mg/kg/injection, schedule: Q01DX001 (ip), vehicle: saline, higher = larger tumour): 76 % of control
- T/C (endpoint: median tumor weight (est.), dose: 103.0 mg/kg/injection, schedule: Q01DX001 (ip), vehicle: saline, higher = larger tumour): 38 % of control
- T/C (endpoint: median tumor weight (est.), dose: 150.0 mg/kg/injection, schedule: Q01DX001 (ip), vehicle: saline, higher = larger tumour): 34 % of control
- T/C (endpoint: median tumor weight (est.), dose: 209.0 mg/kg/injection, schedule: Q01DX001 (ip), vehicle: saline, higher = larger tumour): 16 % of control
- T/C (endpoint: median tumor weight (est.), dose: 300.0 mg/kg/injection, schedule: Q01DX001 (ip), vehicle: saline, higher = larger tumour): 2 % of control
- T/C (endpoint: median tumor weight (est.), dose: 312.0 mg/kg/injection, schedule: Q01DX001 (ip), vehicle: saline, higher = larger tumour): 7 % of control
